Results taken from ChEMBL document CHEMBL4725344, “Development of Highly Potent Carbazole Amphiphiles as Membrane-Targeting Antimicrobials for Treating Gram-Positive Bacterial Infections” (J Med Chem, 2020).
Values after ≈ are worked out from the molar mass of the structure shown. Active and inactive are the calls of the source. No cut-off for these calls is given here.

Assays:
Bacillus subtilis [1] = assay: Displacement of BODIPYTM-TR-cadaverine from Bacillus subtilis LTA at MIC measured after 30 mins by fluorescence assay relative to control
Cell membrane [2] = assay: Induction of inner membrane permeabilization in methicillin-resistant Staphylococcus aureus NCTC 10442 measured for 1 hr by SYTOX green dye based fluorescence assay; type: subcellular
[3] = Cytotoxicity against mouse J774.A1 cells assessed as cell viability at 50 ug/ml measured after 24 hrs by CCK8 assay relative to control; type: cell-based; settings: at 50 µg/mL, read-out: Activity
Cell membrane [4] = assay: Induction of cell membrane damage in Staphylococcus aureus ATCC 29213 assessed as membrane perforation at 8 times MIC measured after 2 hrs by TEM analysis
[5] = Cytotoxicity against mouse J774.A1 cells assessed as cell viability at […] ug/ml measured after 24 hrs by CCK8 assay relative to control; type: cell-based; settings: dose 1.56 µg/ml, read-out: Activity
[6] = Cytotoxicity against mouse corneal epithelial cells assessed as cell viability at 100 ug/ml measured after 24 hrs by CCK8 assay relative to control; type: cell-based; settings: at 100 µg/mL, read-out: Activity
[7] = Cytotoxicity against mouse J774.A1 cells assessed as cell viability at 12.5 ug/ml measured after 24 hrs by CCK8 assay relative to control; type: cell-based; settings: at 12.5 µg/mL, read-out: Activity
[8] = Hemolytic activity in rabbit erythrocytes measured after 1 hr by microplate reader analysis; type: ADME, cell-based, Oryctolagus cuniculus, Erythrocyte
Staphylococcus aureus [9] = assay: Antibacterial activity against Staphylococcus aureus ATCC 29213 at 0.5 times MIC passaged daily for 21 days; type: functional, organism-based; settings: time 21.0 day
Staphylococcus aureus [10] = assay: Antibacterial activity against Staphylococcus aureus ATCC 29213 measured after 24 hrs by microplate reader analysis; type: functional
[11] = Cytotoxicity against mouse corneal epithelial cells assessed as cell viability at […] ug/ml measured after 24 hrs by CCK8 assay relative to control; type: cell-based; settings: dose 1.56 µg/ml, read-out: Activity
[12] = Toxicity in C57BL6 mouse assessed as corneal damage at 0.5% administered as topical solution for 4 times per day for 3 days and measured post-last dose by fluorescein sodium staining based slit-lamp biomicroscopic method; settings: in vivo, topical_or_ocular, 72 h, time 3 day
Cell membrane [13] = assay: Induction of inner membrane permeabilization in Staphylococcus aureus ATCC 29213 measured for 1 hr by SYTOX green dye based fluorescence assay; type: subcellular
Bacillus subtilis [14] = assay: Displacement of BODIPYTM-TR-cadaverine from Bacillus subtilis LTA at 4 times MIC measured after 30 mins by fluorescence assay relative to control
Staphylococcus aureus [15] = assay: Antibacterial activity against methicillin-resistant Staphylococcus aureus NCTC 10442 measured after 24 hrs in presence of LTA by microplate reader analysis; type: functional
[16] = Cytotoxicity against mouse J774.A1 cells assessed as reduction in cell viability measured after 24 hrs by CCK8 assay; type: cell-based
[17] = Hemolytic activity in rabbit erythrocytes assessed as hemolysis at 200 ug/ml measured after 1 hr by microplate reader analysis relative to control; type: ADME, cell-based, Oryctolagus cuniculus, Erythrocyte; settings: at 200 µg/mL, read-out: Activity
[18] = Selectivity index, ratio of HC50 for rabbit erythrocytes to MIC for Staphylococcus aureus ATCC 29213; type: toxicity; settings: read-out: Selectivity Index
[19] = Cytotoxicity against mouse J774.A1 cells assessed as cell viability at 3.125 ug/ml measured after 24 hrs by CCK8 assay relative to control; type: cell-based; settings: at 3.125 µg/mL, read-out: Activity
Cell membrane [20] = assay: Disruption of cell membrane integrity in Staphylococcus aureus ATCC 29213 assessed as increase in red fluorescence at 8 times MIC measured after 2 hrs by Syto9/propidium iodide Live/dead staining based laser confocal microscopic analysis; type: subcellular
Cell membrane [21] = assay: Induction of cell membrane damage in Staphylococcus aureus ATCC 29213 assessed as wrinkle formation at 8 times MIC measured after 2 hrs by SEM analysis; type: subcellular
[22] = Cytotoxicity against mouse J774.A1 cells assessed as cell viability at 6.25 ug/ml measured after 24 hrs by CCK8 assay relative to control; type: cell-based; settings: at 6.25 µg/mL, read-out: Activity
Staphylococcus aureus [23] = assay: Bactericidal activity against Staphylococcus aureus ATCC 29213 assessed as log reduction in bacterial count at 4 times MIC preincubated for 4 hrs followed by replating on MHA medium measured after 24 hrs by time kill assay; type: functional; settings: time 28 hrs
Staphylococcus aureus [24] = assay: Antibacterial activity against Staphylococcus aureus ATCC 29213 measured after 24 hrs in presence of LTA by microplate reader analysis; type: functional
[25] = Cytotoxicity against mouse corneal epithelial cells assessed as cell viability at 50 ug/ml measured after 24 hrs by CCK8 assay relative to control; type: cell-based; settings: at 50 µg/mL, read-out: Activity
Bacillus subtilis [26] = assay: Displacement of BODIPYTM-TR-cadaverine from Bacillus subtilis LTA at 2 times MIC measured after 30 mins by fluorescence assay relative to control
Staphylococcus aureus [27] = assay: Bactericidal activity against Staphylococcus aureus ATCC 29213 assessed as log reduction in bacterial count at 8 times MIC preincubated for 1 hr followed by replating on MHA medium measured after 24 hrs by time kill assay; type: functional; settings: time 25 hrs
Staphylococcus aureus [28] = assay: Antibacterial activity against methicillin-resistant Staphylococcus aureus NCTC 10442 measured after 24 hrs by microplate reader analysis; type: functional
Staphylococcus aureus [29] = assay: (§1) Antibacterial activity against Staphylococcus aureus ATCC 29213 infected in cyclophosphamide-immunosuppressed C57BL6 mouse cornea assessed as log reduction in corneal bacterial count at 0.5% administered as topical solution for 4 times per day for 3 days and measured post-last dose by standard plate counting method; type: functional; settings: time 3 day
[30] = Cytotoxicity against mouse corneal epithelial cells assessed as cell viability […] measured after 24 hrs by CCK8 assay relative to control; type: cell-based; settings: dose 25 µg/ml, read-out: Activity
[31] = Cytotoxicity against mouse corneal epithelial cells assessed as cell viability at 12.5 ug/ml measured after 24 hrs by CCK8 assay relative to control; type: cell-based; settings: at 12.5 µg/mL, read-out: Activity
Bacillus subtilis [32] = assay: Displacement of BODIPYTM-TR-cadaverine from Bacillus subtilis LTA at 8 times MIC measured after 30 mins by fluorescence assay relative to control
Cell membrane [33] = assay: Induction of cell membrane damage in Staphylococcus aureus ATCC 29213 assessed as membrane perforation at 8 times MIC measured after 2 hrs by SEM analysis
[34] = Cytotoxicity against mouse corneal epithelial cells assessed as reduction in cell viability measured after 24 hrs by CCK8 assay; type: cell-based
[35] = Selectivity index, ratio of HC50 for rabbit erythrocytes to MIC for methicillin-resistant Staphylococcus aureus N315; type: toxicity; settings: read-out: Selectivity Index
[36] = Selectivity index, ratio of HC50 for rabbit erythrocytes to MIC for methicillin-resistant Staphylococcus aureus NCTC 10442; type: toxicity; settings: read-out: Selectivity Index
[37] = Cytotoxicity against mouse corneal epithelial cells assessed as cell viability at 6.25 ug/ml measured after 24 hrs by CCK8 assay relative to control; type: cell-based; settings: at 6.25 µg/mL, read-out: Activity
[38] = Cytotoxicity against mouse J774.A1 cells assessed as cell viability at 100 ug/ml measured after 24 hrs by CCK8 assay relative to control; type: cell-based; settings: at 100 µg/mL, read-out: Activity
[39] = Cytotoxicity against mouse corneal epithelial cells assessed as cell viability at 3.125 ug/ml measured after 24 hrs by CCK8 assay relative to control; type: cell-based; settings: at 3.125 µg/mL, read-out: Activity
[40] = Cytotoxicity against mouse J774.A1 cells assessed as cell viability at 25 ug/ml measured after 24 hrs by CCK8 assay relative to control; type: cell-based; settings: at 25 µg/mL, read-out: Activity
Staphylococcus aureus [41] = assay: Antibacterial activity against methicillin-resistant Staphylococcus aureus N315 measured after 24 hrs by microplate reader analysis; type: functional
Staphylococcus aureus [42] = assay: as §1, with “5%” for “0.5%”; type: functional; settings: time 3 day
Staphylococcus aureus [43] = assay: Bactericidal activity against Staphylococcus aureus ATCC 29213 assessed as log reduction in bacterial count at 8 times MIC preincubated for 4 hrs followed by replating on MHA medium measured after 24 hrs by time kill assay; type: functional; settings: time 28 hrs

CC(C)=CCn1c2ccccc2c2c(OCC(O)CNC(=N)N)cccc21 (centres undefined)
inhibition (Bacillus subtilis [1]): 12.9% | Activity (Cell membrane [2]): Dose-dependent effect | viability at 24 h, 50 ug/ml [3]: 28.1% | Activity (Cell membrane [4]): Active | viability at 24 h, 1.56 ug/ml [5]: 96.3% | viability at 24 h, 100 ug/ml [6]: 6.65% | viability at 24 h, 12.5 ug/ml [7]: 80.5% | HC50 at 1 h [8]: > 200 µg/mL | Activity (Staphylococcus aureus [9]): Active | MIC (Staphylococcus aureus [10]): 1.56 µg/mL (≈ 4.26 µM) | viability at 24 h, 1.56 ug/ml [11]: 88.3% | Activity [12]: Non-Toxic | Activity (Cell membrane [13]): Dose-dependent effect | inhibition (Bacillus subtilis [14]): 28.8% | MIC (Staphylococcus aureus [15]): 1.56 µg/mL | CC50 at 24 h [16]: 37.2 µg/mL (≈ 102 µM) | hemolysis at 1 h, 200 ug/ml [17]: 3.5% | selectivity ratio [18]: > 128 | viability at 24 h, 3.125 ug/ml [19]: 95% | Activity (Cell membrane [20]): Active | Activity (Cell membrane [21]): Active | viability at 24 h, 6.25 ug/ml [22]: 86.2% | log(activity) (Staphylococcus aureus [23]): 3.45 | MIC (Staphylococcus aureus [24]): 1.56 µg/mL | viability at 24 h, 50 ug/ml [25]: 8.52% | inhibition (Bacillus subtilis [26]): 22.3% | log(activity) (Staphylococcus aureus [27]): 3.21 | MIC (Staphylococcus aureus [28]): 1.56 µg/mL (≈ 4.26 µM) | log(activity) (Staphylococcus aureus [29]): 4.17 | viability at 24 h [30]: 34.1% | viability at 24 h, 12.5 ug/ml [31]: 75.1% | inhibition (Bacillus subtilis [32]): 35.8% | Activity (Cell membrane [33]): Active | CC50 at 24 h [34]: 23.8 µg/mL (≈ 65 µM) | selectivity ratio [35]: > 128 | selectivity ratio [36]: > 128 | viability at 24 h, 6.25 ug/ml [37]: 85.3% | viability at 24 h, 100 ug/ml [38]: 20.5% | viability at 24 h, 3.125 ug/ml [39]: 87.9% | viability at 24 h, 25 ug/ml [40]: 78.2% | MIC (Staphylococcus aureus [41]): 0.78 µg/mL (≈ 2.13 µM)

CN[C@H](CC(C)C)C(=O)N[C@H]1C(=O)N[C@@H](CC(N)=O)C(=O)N[C@H]2C(=O)N[C@H]3C(=O)N[C@H](C(=O)N[C@H](C(=O)O)c4cc(O)cc(O)c4-c4cc3ccc4O)[C@H](O)c3ccc(c(Cl)c3)Oc3cc2cc(c3O[C@@H]2O[C@H](CO)[C@@H](O)[C@H](O)[C@H]2O[C@H]2C[C@](C)(N)[C@H](O)[C@H](C)O2)Oc2ccc(cc2Cl)[C@H]1O [VANCOMYCIN]
viability at 24 h, 50 ug/ml [3]: 91% | log(activity) (Staphylococcus aureus [42]): 3.99 | viability at 24 h, 1.56 ug/ml [5]: 101% | viability at 24 h, 12.5 ug/ml [7]: 98.2% | MIC (Staphylococcus aureus [10]): 0.78 µg/mL (≈ 0.538 µM) | viability at 24 h, 3.125 ug/ml [19]: 99.8% | viability at 24 h, 6.25 ug/ml [22]: 99.5% | log(activity) (Staphylococcus aureus [23]): 0.71 | MIC (Staphylococcus aureus [28]): 1.56 µg/mL (≈ 1.08 µM) | log(activity) (Staphylococcus aureus [43]): 1.45 | viability at 24 h, 100 ug/ml [38]: 89.9% | viability at 24 h, 25 ug/ml [40]: 92% | MIC (Staphylococcus aureus [41]): 1.56 µg/mL (≈ 1.08 µM)
